Data on 15 molecules can be found in patent publication US8236808B2, “Pyrazine derivatives as ENAC blockers” (Novartis AG, priority 2008, dated 2012).

Where a name gives a salt, the structure may show the parent alone.

Broadly, the IC50 is the midpoint of a concentration-inhibition curve. Read a high IC50 as lower potency.

In the experiment the target is T1, epithelial sodium channel (ENaC) (Homo sapiens, UniProt P37088+P51168+P51170).
T1 construct: host or cells: primary human bronchial epithelial cells (HBECs), differentiated at the air-liquid interface
T1 sequence (P37088 1-669): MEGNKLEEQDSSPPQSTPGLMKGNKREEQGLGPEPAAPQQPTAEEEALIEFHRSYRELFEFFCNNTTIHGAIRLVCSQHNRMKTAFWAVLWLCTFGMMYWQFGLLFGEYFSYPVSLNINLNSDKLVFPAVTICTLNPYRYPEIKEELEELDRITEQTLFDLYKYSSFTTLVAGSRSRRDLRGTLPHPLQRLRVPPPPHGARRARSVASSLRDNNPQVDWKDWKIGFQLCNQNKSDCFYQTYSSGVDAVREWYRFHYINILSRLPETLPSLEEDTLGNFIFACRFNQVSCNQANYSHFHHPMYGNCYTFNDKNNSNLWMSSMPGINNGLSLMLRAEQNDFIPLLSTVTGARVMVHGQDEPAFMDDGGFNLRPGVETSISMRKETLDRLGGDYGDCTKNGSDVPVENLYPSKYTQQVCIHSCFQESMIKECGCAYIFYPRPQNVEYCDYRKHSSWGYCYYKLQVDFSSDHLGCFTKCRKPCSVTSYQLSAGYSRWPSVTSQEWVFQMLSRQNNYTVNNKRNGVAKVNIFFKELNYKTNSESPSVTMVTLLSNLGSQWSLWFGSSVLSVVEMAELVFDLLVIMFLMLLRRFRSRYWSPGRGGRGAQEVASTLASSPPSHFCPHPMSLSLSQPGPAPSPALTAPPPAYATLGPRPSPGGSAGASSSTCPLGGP
T1 sequence (P51168 1-640): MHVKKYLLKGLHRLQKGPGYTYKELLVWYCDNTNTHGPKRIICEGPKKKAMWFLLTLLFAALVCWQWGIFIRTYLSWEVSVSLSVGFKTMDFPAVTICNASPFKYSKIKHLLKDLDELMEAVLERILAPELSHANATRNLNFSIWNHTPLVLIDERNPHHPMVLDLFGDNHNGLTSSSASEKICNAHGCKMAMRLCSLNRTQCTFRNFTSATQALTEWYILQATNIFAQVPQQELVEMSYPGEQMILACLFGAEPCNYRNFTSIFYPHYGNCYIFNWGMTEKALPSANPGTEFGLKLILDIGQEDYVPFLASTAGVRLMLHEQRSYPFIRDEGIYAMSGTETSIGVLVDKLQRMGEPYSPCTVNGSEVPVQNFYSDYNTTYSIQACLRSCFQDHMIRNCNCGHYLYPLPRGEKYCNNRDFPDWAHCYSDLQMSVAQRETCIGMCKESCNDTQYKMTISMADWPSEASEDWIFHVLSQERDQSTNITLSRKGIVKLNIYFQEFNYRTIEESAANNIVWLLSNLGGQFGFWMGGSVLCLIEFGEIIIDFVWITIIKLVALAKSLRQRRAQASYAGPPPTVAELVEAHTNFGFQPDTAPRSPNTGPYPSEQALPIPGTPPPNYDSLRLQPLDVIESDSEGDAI
T1 sequence (P51170 1-649): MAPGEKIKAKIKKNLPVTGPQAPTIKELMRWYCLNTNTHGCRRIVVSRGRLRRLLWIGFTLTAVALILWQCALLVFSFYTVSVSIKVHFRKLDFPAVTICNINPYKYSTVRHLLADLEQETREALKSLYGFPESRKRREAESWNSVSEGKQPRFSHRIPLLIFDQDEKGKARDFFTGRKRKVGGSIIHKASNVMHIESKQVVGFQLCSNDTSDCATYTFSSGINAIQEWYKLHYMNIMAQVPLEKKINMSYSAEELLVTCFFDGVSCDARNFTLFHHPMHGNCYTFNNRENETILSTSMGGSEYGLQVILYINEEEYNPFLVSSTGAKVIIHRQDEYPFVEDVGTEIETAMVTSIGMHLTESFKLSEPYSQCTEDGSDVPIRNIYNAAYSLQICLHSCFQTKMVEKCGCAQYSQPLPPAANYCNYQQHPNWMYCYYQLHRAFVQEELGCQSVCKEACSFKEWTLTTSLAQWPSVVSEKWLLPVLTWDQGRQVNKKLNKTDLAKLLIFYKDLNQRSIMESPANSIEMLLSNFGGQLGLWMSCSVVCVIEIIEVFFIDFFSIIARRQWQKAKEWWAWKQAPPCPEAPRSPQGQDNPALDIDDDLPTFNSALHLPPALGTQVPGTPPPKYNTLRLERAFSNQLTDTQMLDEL
The experiment in a line: Short circuit current (ISC) measurements in human bronchial epithelial cells, inhibition of amiloride-sensitive ISC. The format is cell-based. The conditions noted are these: inhibition of the amiloride-sensitive ISC; HBECs cultured at air-liquid interface, Ussing chamber, compound added to apical chamber. The procedure:
Compounds of formula (I), hereinafter referred to alternatively as “agents of the invention”, are useful as pharmaceuticals. In particular, the compounds have good ENaC blocker activity and may be tested in the following assays.
Human Bronchial Epithelial cells (HBECs) (Cambrex) were cultured under air-liquid interface conditions to provide a well differentiated mucociliary phenotype.
HBECs were cultured using a modification of the method described by Gray and colleagues (Gray et al., 1996). Cells were seeded in plastic T-162 flasks and were grown in bronchial epithelial cell growth medium (BEGM; Cambrex) supplemented with bovine pituitary extract (52 μg/mL), hydrocortisone (0.5 μg/mL), human recombinant epidermal growth factor (0.5 ng/mL), epinephrine (0.5 μg/mL), transferrin (10 μg/mL), insulin (5 μg/mL), retinoic acid (0.1 μg/mL), triiodothyronine ([…]), gentamycin (50 μg/mL) and amphotericin B (50 ng/mL). Medium was changed every 48 hours until cells were 90% confluent. Cells were then passaged and seeded (8.25×10^5 cells/insert) on polycarbonate Snapwell inserts (Costar) in differentiation media containing 50% DMEM in BEGM with the same supplements as above but without triiodothyronine and a final retinoic acid concentration of 50 nM (all-trans retinoic acid). Cells were maintained submerged for the first 7 days in culture, after which time they were exposed to an apical air interface for the remainder of the culture period. At this time, media was changed to DMEM:F12 media containing 2% v/v Ultroser G for the remainder of culture. Amphotericin B was removed from all media 3 feeds prior to use in the Ussing Chambers. Cells were used between days 7 and 21 after establishment of the apical-air interface. At all stages of culture, cells were maintained at 37° C. in 5% CO2 in an air incubator.
Snapwell inserts were mounted in Vertical Diffusion Chambers (Costar) and were bathed with continuously gassed Ringer solution (5% CO2 in O2; pH 7.4) maintained at 37° C. containing (in mM): 120 NaCl, 25 NaHCO3, 3.3 KH2PO4, 0.8 K2HPO4, 1.2 CaCl2, 1.2 MgCl2, and 10 glucose. The solution osmolarity was between 280 and 300 mOsmol/kg H2O for all physiological salt solutions used. Cells were voltage clamped to 0 mV (model EVC4000; WPI). RT was measured by applying a 1- or 2-mV pulse at 30-s intervals and calculating RT by Ohm's law. Data were recorded using a PowerLab workstation (ADInstruments).
Test compounds were prepared as a 10 mM stock solution in DMSO (95%). Serial 3-fold dilutions were freshly prepared in an appropriate vehicle (distilled H2O or Ringers solution). The initial concentration was added to the apical chamber as a 1000× concentrate in 5 μL, resulting in a final 1× concentration the 5 mL volume of the Ussing chamber. Subsequent additions of compound were added in a 3.3 μL volume of the 1000× serially diluted stock solution. At the completion of the concentration-response experiment, amiloride (10 μM) was added into the apical chamber to enable the total amiloride-sensitive current to be measured. An amiloride control IC50 was established at the start of each experiment.
Results are expressed as the mean % inhibition of the amiloride-sensitive ISC. Concentration-response curves were plotted and IC50 values generated using GraphPad Prism 3.02. Cell inserts were typically run in duplicate and the IC50 calculated on the mean % inhibition data.
With `CCC[C@H](CNC(=O)c1nc(Cl)c(N)nc1N)[N+](C)(C)C` [Example 1, ((R)-1-{[(3,5-Diamino-6-chloro-pyrazine-2-carbonyl)-amino]-methyl}-butyl)-trimethyl-ammonium iodide], the IC50 was determined as 250 nM. In other words, the sub-micromolar range.

For `CCC[C@@H](CNC(=O)c1nc(Cl)c(N)nc1N)[N+](C)(C)C` [Example 5, ((S)-1-{[(3,5-Diamino-6-chloro-pyrazine-2-carbonyl)-amino]-methyl}-butyl)-trimethyl-ammonium trifluoroacetate], inhibition was half-maximal at 20 nM (IC50).

Turning to `C[N+](C)(C)C1(CNC(=O)c2nc(Cl)c(N)nc2N)CCCC1` [Example 9, (1-{[(3,5-Diamino-6-chloro-pyrazine-2-carbonyl)-amino]-methyl}-cyclopentyl)-trimethyl-ammonium iodide], the IC50 was 3460 nM.

In the case of `C[N+]1(C)CCC[C@@H]1CNC(=O)c1nc(Cl)c(N)nc1N` [Example 11, (R)-2-{[(3,5-Diamino-6-chloro-pyrazine-2-carbonyl)-amino]-methyl}-1,1-dimethyl-pyrrolidinium iodide], the IC50 amounted to 5320 nM.

Regarding `C[N+](C)(C)[C@H](CNC(=O)c1nc(Cl)c(N)nc1N)Cc1ccccc1` [Example 13, {(S)-1-Benzyl-2-[(3,5-diamino-6-chloro-pyrazine-2-carbonyl)-amino]-ethyl}-trimethyl-ammonium iodide], half-maximal inhibition (IC50) was put at 170 nM.

In turn, `C[N+](C)(C)[C@@H](CCCCNC(=O)CCc1ccc(OCc2ccccc2)cc1)CNC(=O)c1nc(Cl)c(N)nc1N` [Example 14, ((S)-5-[3-(4-Benzyloxy-phenyl)-propionylamino]-1-{[(3,5-diamino-6-chloro-pyrazine-2-carbonyl)-amino]-methyl}-pentyl)-trimethyl-ammonium iodide] showed a 50% inhibitory concentration (IC50) of 46 nM. Against the preceding molecule, the IC50 is about 3.7-fold lower.

On to `C[N+](C)(C)[C@@H](CCCCNC(=O)Cc1ccc(OCc2ccccc2)cc1)CNC(=O)c1nc(Cl)c(N)nc1N` [Example 15, ((S)-5-[2-(4-Benzyloxy-phenyl)-acetylamino]-1-{[(3,5-diamino-6-chloro-pyrazine-2-carbonyl)-amino]-methyl}-pentyl)-trimethyl-ammonium iodide], for which the IC50 worked out at 52 nM. This IC50 and that of the molecule before are within 1.5-fold of each other.

Regarding `C[N+]1(CCNC(=O)c2nc(Cl)c(N)nc2N)CCC(Cc2ccccc2)CC1` (stereo not drawn) [Example 16, 4-Benzyl-1-{2-[(3,5-diamino-6-chloro-pyrazine-2-carbonyl)-amino]-ethyl}-1-methyl-piperidinium iodide], the IC50 is 640 nM.

Turning to `C=CC[N+](CCCc1ccc(OC)cc1)(CCCc1ccc(OC)cc1)CCNC(=O)c1nc(Cl)c(N)nc1N` [Example 17, Allyl-{2-[(3,5-diamino-6-chloro-pyrazine-2-carbonyl)-amino]-ethyl}-bis-[3-(4-methoxy-phenyl)-propyl]-ammonium trifluoroacetate], 7.5 nM corresponded to half-maximal inhibition (IC50). This IC50 lies about 85-fold lower than the previous one.

`COc1ccc(CCC[N+](CCCc2ccc(OC)cc2)(CCCc2ccc(OC)cc2)CCNC(=O)c2nc(Cl)c(N)nc2N)cc1` [Example 18, {2-[(3,5-Diamino-6-chloro-pyrazine-2-carbonyl)-amino]-ethyl}-tris-[3-(4-methoxy-phenyl)-propyl]-ammonium trifluoroacetate] displayed a concentration for half-maximal inhibition (IC50) of 37 nM.

Molecule `CCN(CC)CC[N+](CCCc1ccc(OC)cc1)(CCCc1ccc(OC)cc1)CCNC(=O)c1nc(Cl)c(N)nc1N` [Example 19, {2-[(3,5-Diamino-6-chloro-pyrazine-2-carbonyl)-amino]-ethyl}-(2-diethylamino-ethyl)-bis-[3-(4-methoxy-phenyl)-propyl]-ammonium trifluoroacetate] returned an IC50 of 20 nM.

The molecule `COc1ccc(CCC[N+](C)(CCCc2ccc(OC)cc2)CCNC(=O)c2nc(Cl)c(N)nc2N)cc1` [Example 20, {2-[(3,5-diamino-6-chloro-pyrazine-2-carbonyl)-amino]-ethyl}-bis-[3-(4-methoxy-phenyl)-propyl]-methyl-ammonium trifluoroacetate] had a concentration for half-maximal inhibition (IC50) of 2 nM.

On to `CCC[N+](CCCc1ccc(OC)cc1)(CCCc1ccc(OC)cc1)CCNC(=O)c1nc(Cl)c(N)nc1N` [Example 21, {2-[(3,5-Diamino-6-chloro-pyrazine-2-carbonyl)-amino]-ethyl}-bis-[3-(4-methoxy-phenyl)-propyl]-propyl-ammonium trifluoroacetate], for which half-maximal inhibition (IC50) was put at 5690 nM.

`COc1ccc(CCC[N+](CCCc2ccc(OC)cc2)(CCNC(=O)c2nc(Cl)c(N)nc2N)CC(N)=O)cc1` [Example 22, Carbamoylmethyl-{2-[(3,5-diamino-6-chloro-pyrazine-2-carbonyl)-amino]-ethyl}-bis-[3-(4-methoxy-phenyl)-propyl]-ammonium trifluoroacetate] yielded an IC50 of 51 nM.

For `COc1ccc(CCC[N+](CCCc2ccc(OC)cc2)(CCNC(=O)c2nc(Cl)c(N)nc2N)Cc2ccccc2)cc1` [Example 23, Benzyl-{2-[(3,5-diamino-6-chloro-pyrazine-2-carbonyl)-amino]-ethyl}-bis-[3-(4-methoxy-phenyl)-propyl]-ammonium trifluoroacetate], the midpoint of inhibition, the IC50, lay at 34 nM. Compared with the last molecule, the IC50 is about 1.5-fold lower.
